pEC50: −log10 of the molar value. Where two headings read alike, the source gives them in different places.
Legend:
[1] = molecular target: T1, Bombyx mori EcR (VP16 fusion, CVBE switch construct) (Bombyx mori, UniProt P49881); experiment: Z3 Assay (HEK-293 cells with CVBE and 6XEcRE LacZ, β-galactosidase reporter); details: for Fold Induction, Z3 Assay, 3.3 uM: 3.3 uM ligand; for Fold Induction, Z3 Assay, 3.3 uM / Fold Induction, Z3 Assay, 33 uM: ligand treated / DMSO treated cells; for Fold Induction, Z3 Assay, 33 uM: 33 uM ligand; for Z3 assay Rel Max FI: maximum fold induction at any concentration relative to that of GS-E ligand; for fold induction at 33 µM: HEK293, read-out: Fold Induction, Z3 Assay, 33 uM; for fold induction at 3.3 µM: HEK293, read-out: Fold Induction, Z3 Assay, 3.3 uM
T1 sequence (P49881 86-606): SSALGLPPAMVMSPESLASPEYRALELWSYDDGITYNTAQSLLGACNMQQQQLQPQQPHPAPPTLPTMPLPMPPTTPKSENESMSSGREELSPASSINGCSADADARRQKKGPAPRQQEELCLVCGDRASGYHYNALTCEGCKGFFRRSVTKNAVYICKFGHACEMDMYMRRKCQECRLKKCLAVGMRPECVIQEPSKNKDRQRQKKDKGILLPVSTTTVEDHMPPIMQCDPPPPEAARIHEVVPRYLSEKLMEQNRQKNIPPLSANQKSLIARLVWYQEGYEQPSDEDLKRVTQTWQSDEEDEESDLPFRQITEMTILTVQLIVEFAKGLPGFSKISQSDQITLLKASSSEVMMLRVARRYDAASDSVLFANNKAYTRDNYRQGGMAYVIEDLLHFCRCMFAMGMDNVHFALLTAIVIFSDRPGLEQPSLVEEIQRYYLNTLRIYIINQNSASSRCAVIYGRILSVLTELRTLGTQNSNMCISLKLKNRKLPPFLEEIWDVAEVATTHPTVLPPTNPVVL
T1 sequence (P19793 1-462 partner): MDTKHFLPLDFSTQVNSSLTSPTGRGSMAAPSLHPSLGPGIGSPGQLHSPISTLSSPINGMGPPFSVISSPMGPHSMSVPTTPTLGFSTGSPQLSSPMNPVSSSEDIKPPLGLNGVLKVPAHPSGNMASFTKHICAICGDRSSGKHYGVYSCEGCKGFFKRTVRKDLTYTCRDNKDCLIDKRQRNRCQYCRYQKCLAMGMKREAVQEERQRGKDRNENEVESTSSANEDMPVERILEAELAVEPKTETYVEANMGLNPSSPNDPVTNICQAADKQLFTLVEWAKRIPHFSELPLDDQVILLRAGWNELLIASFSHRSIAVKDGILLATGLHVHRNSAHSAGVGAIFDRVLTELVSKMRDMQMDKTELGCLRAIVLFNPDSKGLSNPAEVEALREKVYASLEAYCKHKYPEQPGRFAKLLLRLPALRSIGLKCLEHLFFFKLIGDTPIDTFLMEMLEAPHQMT

[2] = molecular target: GAL4 DBD-CfEcR(DEF)/VP16AD-MmRXRE (Choristoneura fumiferana, UniProt O77240); experiment: 13B3 Assay (CHO stable cell line, luciferase reporter); details: for Fold Induction, 13B3 Assay, 3.3 uM: 3.3 uM ligand; for Fold Induction, 13B3 Assay, 3.3 uM / Fold Induction, 13B3 Assay, 33 uM: RLU ligand treated / RLU DMSO treated cells; for Fold Induction, 13B3 Assay, 33 uM: 33 uM ligand; for 13B3 assay Rel Max FI: maximum fold induction at any concentration relative to that of GS-E ligand, CHO 13B3 cells; for fold induction at 33 µM: read-out: Fold Induction, 13B3 Assay, 33 uM; for fold induction at 3.3 µM: read-out: Fold Induction, 13B3 Assay, 3.3 uM
Outline: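 CHO 13B3 clone stably expressing GAL4 DBD–CfEcR(DEF) and VP16AD–MmRXR(DE) with GAL4 RE–luciferase reporter; cells plated 24 h at 37 °C, then treated with ligands (DMSO stocks diluted 300-fold), 8 concentrations 33–0.01 μM.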

[3] = read-out: Z3 assay EC50, HEK-293 Z3 cells, β-galactosidase reporter, average of two wells
[4] = read-out: 13B3 EC50, CHO 13B3 stable cell line, luciferase reporter, 48 h, average of two wells

Structure (SMILES)	Fold Induction, Z3 Assay, 3.3 uM ([1]; average of two wells)	Fold Induction, Z3 Assay, 33 uM ([1]; average of two wells)	Z3 assay Rel Max FI ([1]; HEK-293 Z3 cells)	pEC50 [1, 3]	Fold Induction, 13B3 Assay, 3.3 uM ([2]; average of two wells)	Fold Induction, 13B3 Assay, 33 uM ([2]; average of two wells)	13B3 assay Rel Max FI [2]	pEC50 [2, 4]	fold induction at 33 µM [1]	fold induction at 33 µM [2]	pEC50 [1]	fold induction at 3.3 µM [1]	pEC50 [2]	fold induction at 3.3 µM [2]
CCc1ccc(C(=O)NN(C(=O)c2ccc(OC)nc2OC)C(C)(C)C)c(F)c1 [RG-115050]	424	1446	0.808	6.55	2027	894	0.724	6.12						
CCc1c(OC)cccc1C(=O)NN(C(=O)c1ccc2nc[nH]c2c1)C(C)(C)C [RG-115719, 3H-benzoimidazole-5-carboxylic acid N-tert-butyl-N′-(2-ethyl-3-methoxy-benzoyl)-hydrazide]									271	1				
COc1cccc(C(=O)NN(C(=O)c2cc(C)cc(C)c2)C(C)(C)C)c1C[S+](C)[O-] (stereo not drawn) [RG-115172]	1	216	0.32	< 4.30	1		0	< 4.30						
COc1cccc(C(=O)NN(C(=O)c2cc(C)cc(C)c2)C(C)(C)C)c1CO [RG-115371, 3,5-dimethyl-benzoic acid N-tert-butyl-N′-(2-hydroxymethyl-3-methoxy-benzoyl)-hydrazide]			0.76				1.44		1770	1090	5.52	249	< 4.30	1
COc1cccc(C(=O)NN(C(=O)c2cc(C)cc(C)c2)C(C)(C)C)c1I [RG-101528]	748	1515	0.923	5.98	259	3027	1.111	4.53						
Cc1c(C(=O)NN(C(=O)c2cc(Cl)cc(Cl)c2)C(C)(C)C)cccc1N(C)C [RG-101316]	1045	350	0.896	5.80		1280								
Cc1c(Cl)cccc1C(=O)NN(C(=O)c1cccc(Cl)c1)C(C)(C)C [RG-101202]	195	1		5.76	5	7	0.007	6.43						
COc1ccc(Cl)cc1C(=O)N(NC(=O)c1cccc(C)c1C)C(C)(C)C [RG-101178]	1200	431	0.887	5.88		699								
Cc1cc(C)cc(C(=O)N(NC(=O)c2ccc3c(c2)CCO3)C(C)(C)C)c1 [RG-101531]	1130	428		7.07		274								
CCc1ccc(C(=O)NN(C(=O)c2ccc(F)cc2)C(C)(C)C)c(F)c1 [RG-100901]	1527	185	0.918	6.50		882								
CCc1c(OC)cccc1C(=O)NN(C(=O)c1cccc(C#N)c1)C(C)(C)C [RG-115327]	279	325	0.662	5.56		3785								
COc1cccc(C(=O)NN(C(=O)c2cc(C)cc(C)c2)C(C)(C)C)c1CF [RG-115160]	3	157	0.21	< 4.30	3	3	0	< 4.30						
CCCCC(CC)N(NC(=O)c1cccc(C)c1C)C(=O)c1ccccc1 (racemic) [RG-103361]	171	244	0.938	6.28	504	2262	0.758	4.55						
CCc1c(OC)cccc1C(=O)NN(C(=O)c1cccc(Br)c1)C(C)(C)C#N [RG-115648]			0.182	4.67	9									
CCc1c(OC)cccc1C(=O)NN(C(=O)c1cc(OC)c(C)c(OC)c1)C(C)(C)C#N [RG-115690]	571		0.998	6.68	930		1.181	6.20						
Cc1cc(C)cc(C(=O)N(NC(=O)c2ccc3c(c2)OC(C)CO3)C(C)(C)C)c1 (racemic) [RG-101509]	1303	328	0.882	5.93		1144								
CCc1c(OC)cccc1C(=O)NN(C(=O)c1cccc(Br)c1)C(C)(C)C [RG-115038]	600	321	1.064	6.26	4119	4970	1.172	5.76						
CCc1c(OC)cccc1C(=O)NN(C(=O)c1cc(OC)c(O)c(OC)c1)C(C)(C)C [RG-115116]	276		0.960	5.48	2		1.172	< 4.30						
C=Cc1c(OC)cccc1C(=O)NN(C(=O)c1cc(F)c(Cl)cc1Cl)C(C)(C)C [RG-115534]	168	249	0.463	5.56		211								
CCc1c(OC)cccc1C(=O)NN(C(=O)c1ccccc1[N+](=O)[O-])C(C)(C)C [RG-115330]	633	432	0.860	6.73	1995	3577	0.711	5.24						
CCc1c(OC)cccc1C(=O)NN(C(=O)c1cccc(F)c1F)C(C)(C)C [RG-115627]	378	362	0.840	6.09	1291	10058	0.854	6.04						
COc1cccc(C(=O)NN(C(=O)c2cc(C)cc(C)c2)C(C)(C)C)c1CN(C)C [RG-115497, 3,5-dimethyl-benzoic acid N-tert-butyl-N′-(2-dimethylaminomethyl-3-methoxy-benzoyl)-hydrazide]			0.07				0		20		< 4.30	1	< 4.30	1
CCc1c(C(=O)NN(C(=O)c2ccccc2OC)C(C)(C)C)ccc2c1OCO2 [RG-100698]	1089	591	1.025	6.00		434								

— US9102648B1, “Bioavailable diacylhydrazine ligands for modulating the expression of exogenous genes via an ecdysone receptor complex” (Intrexon Corporation, priority 2003, dated 2015)
